Source: US8759535B2, “Substituted fused imidazole derivatives, pharmaceutical compositions, and methods of use thereof” (High Point Pharmaceuticals, LLC, priority 2010, dated 2014)
Counter-ions that a name gives are not always drawn.

What follows are compounds tested on HMOX1 (assay: HMOX1 Protein Assay (immunostaining of HO-1 in NHLF cells, GE InCell 1000)). Conditions: Homo sapiens, fold change above DMSO treated cells, 3 μM compound (asterisk), 16 h.
Type: cell-based
Method: Cell Culture. Normal Human Fibroblast (NHLF), were obtained from Lonza. Cultures of cells were maintained in Fibroblast Growth Medium (FGM-2) medium supplemented with 2% fetal bovine serum (FBS), Fibroblast Growth Factor (hFGF-B) 0.5 mL, Insulin 0.5 mL, gentamicin/amphotericin-B 0.5 mL at 37° C. in a humidified atmosphere of 5% CO2. Cells were grown to 80% confluence before treating.
HMOX1 Protein Assay. NHLF cells were grown to 80% confluency and harvested by washing once with HEPES and then trypsinized. Equal numbers (2×10^3 cells per well) of NHLF cells were plated in 384 well optilux tissue culture (BD) plates. Cells were incubated overnight in FGM-2 medium prior to exposure to compound. Cells were treated with either vehicle (DMSO) or compound (dissolved in vehicle) for 16 h. Cells were washed 2× with 1×PBS and fixed with 4% Paraformaldyhyde for 15 min. The fixed cells were then permeabalized with 0.1% Triton X-100 and blocked with 5% BSA in 1×PBS 0.05% Tween-20 for 15 min. HO-1 antibody (abcam) was used for immunostaining at 1:300 dilution in 1% BSA in 1×PBS for 1 hour. Cells were washed 2× with 1×PBS and secondary antibody goat anti-mouse Alexa 488 1:400 dilution (Invitrogen); Hoechst 1:2000 (Invitrogen) in 1% BSA in 1×PBS for 1 hour. Plate was washed 5× with 1×PBS and read at Hoechst Ex.360 […]; Alexa 488 Ex.480 Em. 535 using GE InCell 1000. Results analyzed using GE InCell Analyzer software. Heme oxygenase data represents the fold change above DMSO treated cells.
In general, the fold induction data are reported for 5 μM concentration (i.e., μ-moles of compound to total volume, where the solvent is about 99.2% media and 0.8% DMSO). In some instances, the reported data are for 3 μM concentration, which are indicated by an asterisk (*).

Point of comparison: `CCN(CC)CCCNC(=O)c1ccc2c(c1)nc(Nc1nc3ccc(C(F)(F)F)cc3s1)n2C` [Example 353, 1-Methyl-2-(6-trifluoromethyl-benzothiazol-2-ylamino)-1H-benzoimidazole-5-carboxylic acid (3-diethylamino-propyl)-amide], fold induction at 3 µM 23. Against it:
- CC(O)CCNC(=O)c1ccc2c(c1)nc(Nc1nc3ccc(C(F)(F)F)cc3s1)n2C (stereo not drawn) [Example 216, 1-Methyl-2-(6-trifluoromethyl-benzothiazol-2-ylamino)-1H-benzoimidazole-5-carboxylic acid (3-hydroxy-butyl)-amide] — higher, 31.6
- Cn1c(Nc2nc3ccc(Cl)cc3s2)nc2cc(C(=O)NCCN3CCOCC3)ccc21 [Example 340, 2-(6-Chloro-benzothiazol-2-ylamino)-1-methyl-1H-benzoimidazole-5-carboxylic acid (2-morpholin-4-yl-ethyl)-amide] — lower, 14.4
- C[C@@H](NC(=O)c1ccc2c(c1)nc(Nc1nc3ccc(Cl)cc3s1)n2C)C(=O)N1CCOCC1 [Example 471, 2-(6-Chloro-benzothiazol-2-ylamino)-1-methyl-1H-benzoimidazole-5-carboxylic acid ((R)-1-methyl-2-morpholin-4-yl-2-oxo-ethyl)-amide] — lower, 17.4
- Cn1c(Nc2nc3ccc(OC(F)(F)F)cc3s2)nc2cc(C(=O)NCCCN3CCOCC3)ccc21 [Example 358, 1-Methyl-2-(6-trifluoromethoxy-benzothiazol-2-ylamino)-1H-benzoimidazole-5-carboxylic acid (3-morpholin-4-yl-propyl)-amide] — lower, 11.8
- C[C@@H](NC(=O)c1ccc2c(c1)nc(Nc1nc3ccc(C(F)(F)F)cc3s1)n2C)C(=O)N1CCOCC1 [Example 472, 1-Methyl-2-(6-trifluoromethyl-benzothiazol-2-ylamino)-1H-benzoimidazole-5-carboxylic acid ((R)-1-methyl-2-morpholin-4-yl-2-oxo-ethyl)-amide] — the same, 23

Same assay, conditions: Homo sapiens, fold change above DMSO treated cells, 5 μM compound, 16 h

Point of comparison: `C[C@H](NC(=O)c1ccc2c(c1)nc(Nc1nc3ccc(OC(F)(F)F)cc3s1)n2C)C(=O)N(C)C` [Example 149, 1-Methyl-2-(6-trifluoromethoxy-benzothiazol-2-ylamino)-1H-benzoimidazole-5-carboxylic acid ((S)-1-dimethylcarbamoyl-ethyl)-amide], fold induction at 5 µM 38.7. Against it:
- Cn1c(Nc2nc3c(Cl)cccc3s2)nc2cc(C(=O)NCCOCCN)ccc21 [Example 270, 2-(4-Chloro-benzothiazol-2-ylamino)-1-methyl-1H benzoimidazole-5-carboxylic acid [2-(2-amino-ethoxy)-ethyl]-amide] — lower, 14.6
- Cn1c(Nc2nc3ccc(OC(F)(F)F)cc3s2)nc2cc(C(=O)NCCOC(F)(F)F)ccc21 [Example 44, 1-Methyl-2-(6-trifluoromethoxy-benzothiazol-2-ylamino)-1H-benzoimidazole-5-carboxylic acid (2-trifluoromethoxy-ethyl)-amide] — lower, 12.1
- Cn1c(Nc2nc3ccc(OC(F)(F)F)cc3s2)nc2cc(C(=O)NC3CCS(=O)(=O)C3)ccc21 (stereo not drawn) [Example 121, 1-Methyl-2-(6-trifluoromethoxy-benzothiazol-2-ylamino)-1H-benzimidazole-5-carboxylic acid (1,1-dioxo-tetrahydro-1λ^6-thiophen-3-yl)-amide] — lower, 29.6
- CNC(=O)c1ccc2c(c1)nc(Nc1nc3ccc(OC(F)(F)F)cc3s1)n2CCN [Example 173, 1-(2-Amino-ethyl)-2-(6-trifluoromethoxy-benzothiazol-2-ylamino)-1H-benzoimidazole-5-carboxylic acid methylamide hydrochloride] — lower, 21.4
- COC(=O)c1cc2nc(Nc3nc4ccc(OC(F)(F)F)cc4s3)n(C)c2cc1F [Example 40, 6-Fluoro-1-methyl-2-(6-trifluoromethoxy-benzothiazol-2-ylamino)-1H-benzoimidazole-5-carboxylic acid methyl ester] — lower, 11.8
- Cn1c(Nc2nc3ccc(OC(F)(F)F)cc3s2)nc2cc(C(=O)NCCOCCO)cnc21 [Example 238, 3-Methyl-2-(6-trifluoromethoxy-benzothiazol-2-ylamino)-3H-imidazo[4,5-b]pyridine-6-carboxylic acid [2-(2-hydroxy-ethoxy)-ethyl]-amide] — lower, 33
- CN(C)C(=O)CNC(=O)c1ccc2c(c1)nc(Nc1nc3ccc(Cl)cc3s1)n2C [Example 133, 2-(6-Chloro-benzothiazol-2-ylamino)-1-methyl-1H-benzimidazole-5-carboxylic acid dimethylcarbamoylmethyl-amide] — higher, 45.9
- Cn1c(Nc2nc3ccc(C(F)(F)F)cc3s2)nc2cc(C(=O)O)ccc21 [Example 24, 1-Methyl-2-(6-trifluoromethyl-benzothiazol-2-ylamino)-1H-benzoimidazole-5-carboxylic acid] — lower, 20.7
- Cn1c(Nc2nc3ccc(OC(F)(F)F)cc3s2)nc2ccc(C#N)cc21 [Example 195, 1-Methyl-2-(6-trifluoromethoxy-benzothiazol-2-ylamino)-1H-benzoimidazole-6-carbonitrile] — lower, 4.4
- Cn1c(Nc2nc3ccc(OC(F)(F)F)cc3s2)nc2cc(C(=O)NCCCCO)c(F)cc21 [Example 222, 6-Fluoro-1-methyl-2-(6-trifluoromethoxy-benzothiazol-2-ylamino)-1H-benzoimidazole-5-carboxylic acid (4-hydroxy-butyl)-amide] — higher, 49.9
- Cn1c(Nc2nc3ccc(Cl)cc3s2)nc2cc(C(=O)NCC(=O)N3CCC(O)CC3)ccc21 [Example 436, 2-(6-Chloro-benzothiazol-2-ylamino)-1-methyl-1H-benzoimidazole-5-carboxylic acid [2-(4-hydroxy-piperidin-1-yl)-2-oxo-ethyl]-amide] — lower, 29.3
- CNC(=O)c1ccc2nc(Nc3nc4ccc(OC(F)(F)F)cc4s3)n(C)c2c1 [Example 38, 3-Methyl-2-(6-trifluoromethoxy-benzothiazol-2-ylamino)-3H-benzoimidazole-5-carboxylic acid methylamide] — lower, 18
- Cn1c(Nc2nc3ccc(OC(F)(F)F)cc3s2)nc2cc(C(=O)NCCCO)ccc21 [Example 13, 1-Methyl-2-(6-trifluoromethoxy-benzothiazol-2-ylamino)-1H-benzoimidazole-5-carboxylic acid (3-hydroxy-propyl)-amide] — lower, 20.1
- Cn1c(Nc2nc3ccc(OC(F)(F)F)cc3s2)nc2cc(C(=O)NCC(=O)N3CCC(Oc4ncccn4)CC3)ccc21 [Example 452, 1-Methyl-2-(6-trifluoromethoxy-benzothiazol-2-ylamino)-1H-benzoimidazole-5-carboxylic acid {2-oxo-2-[4-(pyrimidin-2-yloxy)-piperidin-1-yl]-ethyl}-amide] — higher, 71.7
- Cn1c(Nc2nc3ccc(OC(F)(F)F)cc3s2)nc2cc(C(=O)NCC(=O)NCc3ccc(O)cc3)ccc21 [Example 389, 1-Methyl-2-(6-trifluoromethoxy-benzothiazol-2-ylamino)-1H-benzoimidazole-5-carboxylic acid [(4-hydroxy-benzylcarbamoyl)-methyl]-amide] — lower, 38.6
- Cn1c(Nc2nc3ccc(OC(F)(F)F)cc3s2)nc2cc(C(=O)NCC(=O)N(CCO)CCO)ccc21 [Example 392, 1-Methyl-2-(6-trifluoromethoxy-benzothiazol-2-ylamino)-1H-benzoimidazole-5-carboxylic acid {[bis-(2-hydroxy-ethyl)-carbamoyl]-methyl}-amide] — lower, 24.9
- Cn1c(Nc2nc3ccc(Cl)cc3s2)nc2cc(C(=O)N[C@H]3CCCNC3)ccc21 [Example 310, 2-(6-Chloro-benzothiazol-2-ylamino)-1-methyl-1H-benzoimidazole-5-carboxylic acid (S)-piperidin-3-ylamide hydrochloride] — lower, 24.6
- Cn1c(Nc2nc3ccc(OC(F)(F)F)cc3s2)nc2cc(C(=O)NCCC(=O)O)ccc21 [Example 98, 3-{[2-(6-Trifluoromethoxy-benzothiazol-2-ylamino)-1-methyl-1H-benzimidazole-5-carbonyl]-amino}-propionic acid] — lower, 13.8
- COCCNC(=O)c1cc2nc(Nc3nc4ccc(OC(F)(F)F)cc4s3)n(C)c2cc1F [Example 39, 6-Fluoro-1-methyl-2-(6-trifluoromethoxy-benzothiazol-2-ylamino)-1H-benzoimidazole-5-carboxylic acid (2-methoxy-ethyl)-amide] — lower, 18.2
- CNC1CCN(C(=O)CNC(=O)c2ccc3c(c2)nc(Nc2nc4ccc(OC(F)(F)F)cc4s2)n3C)CC1 [Example 453, 1-Methyl-2-(6-trifluoromethoxy-benzothiazol-2-ylamino)-1H-benzoimidazole-5-carboxylic acid [2-(4-methylamino-piperidin-1-yl)-2-oxo-ethyl]-amide hydrochloride] — higher, 81.1
